The test system of this assay is MV-4-11 cells. Put plainly: Gene expression microarray analysis (Affymetrix PrimeView) and GSEA. Type of assay: cell-based, human. On the set-up: RFU PODN (11730768_x_at) / Fold change /veh PODN (11730768_x_at) / RFU LINC00158 (11744669_a_at) / Fold change /veh LINC00158 (11744669_a_at) / RFU DUSP10 (11751237_a_at) / Fold change /veh DUSP10 (11751237_a_at) / RFU ID3 (11757404_x_at) / Fold change /veh ID3 (11757404_x_at) / RFU PLEKHG5 (11737974_s_at) / Fold change /veh PLEKHG5 (11737974_s_at) / RFU LRRC4B (11730491_at) / Fold change /veh LRRC4B (11730491_at) / RFU GIMAP4 (11747438_a_at) / Fold change /veh GIMAP4 (11747438_a_at) / RFU KRT8 (11758183_x_at) / Fold change /veh KRT8 (11758183_x_at) / RFU CNN1 (11734310_a_at) / Fold change /veh CNN1 (11734310_a_at) / RFU VPS37D (11726825_at) / Fold change /veh VPS37D (11726825_at) / RFU C10orf10 (11716522_x_at) / Fold change /veh C10orf10 (11716522_x_at) / RFU KIR2DL2 /// KIR2DL4 /// KIR2DL5A /// KIR2DL5B /// KIR2DS1 /// KIR2DS2 /// KIR2DS3 /// KIR2DS4 /// KIR3DL3 /// KIR3DL3 /// KIR3DS1 (11738374_at) / Fold change /veh KIR2DL2 /// KIR2DL4 /// KIR2DL5A /// KIR2DL5B /// KIR2DS1 /// KIR2DS2 /// KIR2DS3 /// KIR2DS4 /// KIR3DL3 /// KIR3DL3 /// KIR3DS1 (11738374_at) / RFU C1QL1 (11718748_at) / Fold change /veh C1QL1 (11718748_at) / RFU TMPRSS4 (11747572_a_at) / Fold change /veh TMPRSS4 (11747572_a_at) / RFU HAMP (11756126_x_at) / Fold change /veh HAMP (11756126_x_at) / RFU RNFT2 (11725882_a_at) / Fold change /veh RNFT2 (11725882_a_at) / RFU NR4A2 (11747474_a_at) / Fold change /veh NR4A2 (11747474_a_at) / RFU ABCC12 (11746883_a_at) / Fold change /veh ABCC12 (11746883_a_at) / RFU TMEM136 (11760407_x_at) / Fold change /veh TMEM136 (11760407_x_at) / RFU CLDN22 /// WWC2 (11732394_at) / Fold change /veh CLDN22 /// WWC2 (11732394_at) / RFU HLA-DPB1 (11760878_x_at) / Fold change /veh HLA-DPB1 (11760878_x_at) / RFU SPINT1 (11716480_a_at) / Fold change /veh SPINT1 (11716480_a_at) / RFU GAP43 (11754022_s_at) / Fold change /veh GAP43 (11754022_s_at) / RFU A4GNT (11735810_at) / Fold change /veh A4GNT (11735810_at) / RFU PRB3 (11715151_x_at) / Fold change /veh PRB3 (11715151_x_at) / RFU TUBB4B (11761932_at) / Fold change /veh TUBB4B (11761932_at) / RFU CAPN14 (11732068_a_at) / Fold change /veh CAPN14 (11732068_a_at) / RFU TMCC2 (11721928_a_at) / Fold change /veh TMCC2 (11721928_a_at) / RFU IRGQ (11745062_a_at) / Fold change /veh IRGQ (11745062_a_at) / RFU FAM174B (11720279_a_at) / Fold change /veh FAM174B (11720279_a_at) / RFU TMPRSS4 (11748680_a_at) / Fold change /veh TMPRSS4 (11748680_a_at) / RFU FAM212B (11763350_a_at) / Fold change /veh FAM212B (11763350_a_at) / RFU PLEKHG5 (11743358_a_at) / Fold change /veh PLEKHG5 (11743358_a_at) / RFU ZSCAN30 (11745921_a_at) / Fold change /veh ZSCAN30 (11745921_a_at) / RFU CMKLR1 (11741424_a_at) / Fold change /veh CMKLR1 (11741424_a_at) / RFU LOC101060620 /// MAPK8IP1 (11723275_at) / Fold change /veh LOC101060620 /// MAPK8IP1 (11723275_at) / RFU SPTSSB (11747773_x_at) / Fold change /veh SPTSSB (11747773_x_at) / RFU PRSS12 (11739890_at) / Fold change /veh PRSS12 (11739890_at) / RFU BIN1 (11741810_x_at) / Fold change /veh BIN1 (11741810_x_at) / RFU WNT11 (11732464_a_at) / Fold change /veh WNT11 (11732464_a_at) / RFU C10orf10 (11716521_a_at) / Fold change /veh C10orf10 (11716521_a_at) / RFU C5orf56 (11738089_at) / Fold change /veh C5orf56 (11738089_at) / RFU CYB561 (11721691_x_at) / Fold change /veh CYB561 (11721691_x_at) / RFU ANKRD19P (11752326_a_at) / Fold change /veh ANKRD19P (11752326_a_at) / RFU OR2T12 /// OR2T33 /// OR2T8 (11738714_s_at) / Fold change /veh OR2T12 /// OR2T33 /// OR2T8 (11738714_s_at) / RFU VCAN (11748164_a_at) / Fold change /veh VCAN (11748164_a_at) / RFU JSRP1 (11732532_at) / Fold change /veh JSRP1 (11732532_at) / RFU KRTAP10-11 (11738290_x_at) / Fold change /veh KRTAP10-11 (11738290_x_at) / RFU MYO3A (11730013_a_at) / Fold change /veh MYO3A (11730013_a_at) / RFU EBF3 (11725865_a_at) / Fold change /veh EBF3 (11725865_a_at) / RFU CAMK2N1 (11719241_x_at) / Fold change /veh CAMK2N1 (11719241_x_at) / RFU C5orf56 (11738088_a_at) / Fold change /veh C5orf56 (11738088_a_at) / RFU OLFML3 (11715873_a_at) / Fold change /veh OLFML3 (11715873_a_at) / RFU LOC100653217 /// NTM (11731650_a_at) / Fold change /veh LOC100653217 /// NTM (11731650_a_at) / RFU MAPK11 (11762145_a_at) / Fold change /veh MAPK11 (11762145_a_at) / RFU FIZ1 (11724087_x_at) / Fold change /veh FIZ1 (11724087_x_at) / RFU OASL (11726364_x_at) / Fold change /veh OASL (11726364_x_at) / RFU SOX15 (11748057_x_at) / Fold change /veh SOX15 (11748057_x_at) / RFU CD79A (11719716_a_at) / Fold change /veh CD79A (11719716_a_at) / RFU HIST1H1D (11736915_at) / Fold change /veh HIST1H1D (11736915_at) / RFU CASKIN2 (11723855_a_at) / Fold change /veh CASKIN2 (11723855_a_at) / RFU LOC730098 (11760151_x_at) / Fold change /veh LOC730098 (11760151_x_at) / RFU OR4N2 (11742367_at) / Fold change /veh OR4N2 (11742367_at) / RFU PRRT2 (11749266_a_at) / Fold change /veh PRRT2 (11749266_a_at) / RFU SNX32 (11753110_a_at) / Fold change /veh SNX32 (11753110_a_at) / RFU CDHR5 (11726645_a_at) / Fold change /veh CDHR5 (11726645_a_at) / RFU RCAN1 (11760418_a_at) / Fold change /veh RCAN1 (11760418_a_at) / RFU FAM167A (11723789_a_at) / Fold change /veh FAM167A (11723789_a_at) / RFU FAM26E (11764081_at) / Fold change /veh FAM26E (11764081_at) / RFU ISYNA1 (11749810_s_at) / Fold change /veh ISYNA1 (11749810_s_at) / RFU ACY1 (11761880_at) / Fold change /veh ACY1 (11761880_at) / RFU 11764098_at / Fold change /veh 11764098_at / RFU SAMD14 (11745864_x_at) / Fold change /veh SAMD14 (11745864_x_at) / RFU NPB (11741838_a_at) / Fold change /veh NPB (11741838_a_at) / RFU TMPRSS6 (11731388_a_at) / Fold change /veh TMPRSS6 (11731388_a_at) / RFU KRTAP10-2 (11738614_at) / Fold change /veh KRTAP10-2 (11738614_at) / RFU ARHGAP8 /// PRR5-ARHGAP8 (11727945_x_at) / Fold change /veh ARHGAP8 /// PRR5-ARHGAP8 (11727945_x_at) / RFU KRTAP5-7 /// NADSYN1 (11734609_at) / Fold change /veh KRTAP5-7 /// NADSYN1 (11734609_at) / RFU RASL12 (11751679_a_at) / Fold change /veh RASL12 (11751679_a_at) / RFU CDKN2B (11736163_a_at) / Fold change /veh CDKN2B (11736163_a_at) / RFU PRF1 (11729649_at) / Fold change /veh PRF1 (11729649_at) / RFU, ZNF638 /// ZNF638-IT1 / Fold change vs veh, ZNF638 /// ZNF638-IT1 / RFU, PANK3 / Fold change vs veh, PANK3 / RFU, SH3YL1 / Fold change vs veh, SH3YL1 / RFU, ZEB2 / Fold change vs veh, ZEB2 / RFU, NRIP1 / Fold change vs veh, NRIP1 / RFU, PTTG1IP / Fold change vs veh, PTTG1IP / RFU, CAPN2 / Fold change vs veh, CAPN2 / RFU, MED14 / Fold change vs veh, MED14 / RFU, SNORA58 / Fold change vs veh, SNORA58 / RFU, C1orf63 / Fold change vs veh, C1orf63 / RFU, LRRFIP1 / Fold change vs veh, LRRFIP1 / RFU, NDUFAF7 / Fold change vs veh, NDUFAF7 / RFU, SLC12A2 / Fold change vs veh, SLC12A2 / RFU, IBTK / Fold change vs veh, IBTK / RFU, ESF1 / Fold change vs veh, ESF1 / Fold change vs veh, TMEM50B / RFU, TAOK1 / Fold change vs veh, TAOK1 / RFU, ACBD3 / Fold change vs veh, ACBD3 / RFU, TMA16 / Fold change vs veh, TMA16 / RFU, RWDD3 / Fold change vs veh, RWDD3 / RFU, BCAT1 / Fold change vs veh, BCAT1 / RFU, EDEM3 / Fold change vs veh, EDEM3 / RFU, TMEM33 / Fold change vs veh, TMEM33 / RFU, WDR75 / Fold change vs veh, WDR75 / RFU, AHCTF1 / Fold change vs veh, AHCTF1 / RFU, TFRC / Fold change vs veh, TFRC / RFU, ZDHHC17 / Fold change vs veh, ZDHHC17 / RFU, NOM1 / Fold change vs veh, NOM1 / RFU, ARL8B / Fold change vs veh, ARL8B / RFU, ZBTB11 / Fold change vs veh, ZBTB11 / RFU, TAMM41 / Fold change vs veh, TAMM41 / RFU, KIAA1704 /// LOC100996395 / Fold change vs veh, KIAA1704 /// LOC100996395 / RFU, ING1 / Fold change vs veh, ING1 / RFU, TRMT61B / Fold change vs veh, TRMT61B / RFU, FUBP3 / Fold change vs veh, FUBP3 / RFU, TP53 / Fold change vs veh, TP53 / RFU, TNKS2 / Fold change vs veh, TNKS2 / RFU, ZFP14 / Fold change vs veh, ZFP14 / RFU, ACTR2 / Fold change vs veh, ACTR2 / RFU, PPP3R1 / Fold change vs veh, PPP3R1 / RFU, PIK3R1 / Fold change vs veh, PIK3R1 / RFU, HNRNPA1 / Fold change vs veh, HNRNPA1 / RFU, RNF170 / Fold change vs veh, RNF170 / RFU, ZNF28 / Fold change vs veh, ZNF28 / RFU, RNGTT / Fold change vs veh, RNGTT / RFU, OGT / Fold change vs veh, OGT / RFU, BRD1 / Fold change vs veh, BRD1 / RFU, MARS / Fold change vs veh, MARS / RFU, ZNF655 / Fold change vs veh, ZNF655 / RFU, FAHD1 / Fold change vs veh, FAHD1 / RFU, BDP1 / Fold change vs veh, BDP1 / RFU, LRRCC1 / Fold change vs veh, LRRCC1 / RFU, ARID1A / Fold change vs veh, ARID1A / RFU, ZNF146 / Fold change vs veh, ZNF146 / RFU, ZNF330 / Fold change vs veh, ZNF330 / RFU, GPN3 / Fold change vs veh, GPN3 / RFU, C9orf123 / Fold change vs veh, C9orf123 / RFU, N4BP2L2 / Fold change vs veh, N4BP2L2 / RFU, ARFIP1 / Fold change vs veh, ARFIP1 / RFU, FAM179B / Fold change vs veh, FAM179B / RFU, BCL10 / Fold change vs veh, BCL10 / RFU, UHRF1BP1L / Fold change vs veh, UHRF1BP1L / RFU, BET1 / Fold change vs veh, BET1 / RFU, CNOT2 / Fold change vs veh, CNOT2 / RFU, ZNF268 / Fold change vs veh, ZNF268 / Fold change vs veh, ZNF507 / RFU, DGCR2 / Fold change vs veh, DGCR2 / RFU, WDSUB1 / Fold change vs veh, WDSUB1 / Fold change vs veh, HSP90B1 /// MIR3652 / RFU, ADSS / Fold change vs veh, ADSS / RFU, GK / Fold change vs veh, GK / RFU, ZNF148 / Fold change vs veh, ZNF148 / RFU, TAF9 / Fold change vs veh, TAF9 / RFU, SLC1A5 / Fold change vs veh, SLC1A5 / RFU, SLMO2 / Fold change vs veh, SLMO2 / RFU, ABCC4 / Fold change vs veh, ABCC4 / RFU, LOC101060439 /// RAP1B / Fold change vs veh, LOC101060439 /// RAP1B / RFU, RFX7 / Fold change vs veh, RFX7 / RFU, GTPBP10 / Fold change vs veh, GTPBP10 / RFU, CNEP1R1 / Fold change vs veh, CNEP1R1 / RFU, BIVM-ERCC5 /// ERCC5 / Fold change vs veh, BIVM-ERCC5 /// ERCC5 / RFU, ILF3 / Fold change vs veh, ILF3 / RFU 11762660_at / Fold change /veh 11762660_at / RFU VCAN (11757783_s_at) / Fold change /veh VCAN (11757783_s_at) / RFU DDX43 (11728927_at) / Fold change /veh DDX43 (11728927_at) / RFU KRT8 (11758188_x_at) / Fold change /veh KRT8 (11758188_x_at) / RFU NKD1 (11759106_at) / Fold change /veh NKD1 (11759106_at) / RFU SRD5A1 (11742802_a_at) / Fold change /veh SRD5A1 (11742802_a_at) / RFU TPSAB1 /// TPSB2 (11721975_s_at) / Fold change /veh TPSAB1 /// TPSB2 (11721975_s_at) / RFU GSTM3 (11746129_a_at) / Fold change /veh GSTM3 (11746129_a_at) / RFU IL23R (11737362_x_at) / Fold change /veh IL23R (11737362_x_at) / RFU TMEM51 (11727254_a_at) / Fold change /veh TMEM51 (11727254_a_at) / RFU PIWIL2 (11732686_x_at) / Fold change /veh PIWIL2 (11732686_x_at) / RFU ORM1 (11744905_x_at) / Fold change /veh ORM1 (11744905_x_at) / RFU CCDC152 (11743942_at) / Fold change /veh CCDC152 (11743942_at) / RFU ECM1 (11717891_a_at) / Fold change /veh ECM1 (11717891_a_at) / RFU IL23R (11748794_a_at) / Fold change /veh IL23R (11748794_a_at) / RFU TNFAIP8L3 (11732012_x_at) / Fold change /veh TNFAIP8L3 (11732012_x_at) / RFU MBOAT4 (11741988_at) / Fold change /veh MBOAT4 (11741988_at) / RFU 11764193_at / Fold change /veh 11764193_at / RFU TMEM53 (11763286_at) / Fold change /veh TMEM53 (11763286_at) / RFU MAGEB2 (11727129_at) / Fold change /veh MAGEB2 (11727129_at) / RFU TMEM200A (11744735_a_at) / Fold change /veh TMEM200A (11744735_a_at) / RFU CCDC152 (11751479_a_at) / Fold change /veh CCDC152 (11751479_a_at) / RFU FAM211A (11726209_a_at) / Fold change /veh FAM211A (11726209_a_at) / RFU RGS16 (11746705_a_at) / Fold change /veh RGS16 (11746705_a_at) / RFU VCAN (11755009_s_at) / Fold change /veh VCAN (11755009_s_at) / RFU RHOB (11743442_s_at) / Fold change /veh RHOB (11743442_s_at) / RFU RGS16 (11720943_a_at) / Fold change /veh RGS16 (11720943_a_at) / RFU RGS16 (11720944_at) / Fold change /veh RGS16 (11720944_at) / RFU, VPS4B / Fold change vs veh, VPS4B / RFU, CREB1 / Fold change vs veh, CREB1 / RFU, DNAJC13 / Fold change vs veh, DNAJC13 / RFU, GNAQ / Fold change vs veh, GNAQ / RFU, CDK5R1 / Fold change vs veh, CDK5R1 / RFU, ZRANB3 / Fold change vs veh, ZRANB3 / RFU, CUL4A / Fold change vs veh, CUL4A / RFU, CCNY / Fold change vs veh, CCNY / RFU, UFL1 / Fold change vs veh, UFL1 / RFU, COG3 / Fold change vs veh, COG3 / RFU, DIAPH2 / Fold change vs veh, DIAPH2 / RFU, SKA2 / Fold change vs veh, SKA2 / RFU, AFF3 / Fold change vs veh, AFF3 / RFU, LMF1 / Fold change vs veh, LMF1 / RFU, IPO11 / Fold change vs veh, IPO11 / RFU, DFFB / Fold change vs veh, DFFB / RFU, FOXP1 / Fold change vs veh, FOXP1 / RFU, CARD8 / Fold change vs veh, CARD8 / RFU, STRN3 / Fold change vs veh, STRN3 / RFU, ADK / Fold change vs veh, ADK / RFU, RASSF2 / Fold change vs veh, RASSF2 / RFU, WIPF1 / Fold change vs veh, WIPF1 / RFU, LARP1B / Fold change vs veh, LARP1B / RFU, RASA1 / Fold change vs veh, RASA1 / RFU, RB1 / Fold change vs veh, RB1 / RFU, PPFIA1 / Fold change vs veh, PPFIA1 / RFU, MAT2A / Fold change vs veh, MAT2A / RFU, CCT5 / Fold change vs veh, CCT5 / RFU, WDR92 / Fold change vs veh, WDR92 / RFU, CUX1 / Fold change vs veh, CUX1 / RFU, TTC7A / Fold change vs veh, TTC7A / RFU, TMEM135 / Fold change vs veh, TMEM135 / RFU, DEPTOR / Fold change vs veh, DEPTOR / RFU, CPM / Fold change vs veh, CPM / RFU, DNAJB6 / Fold change vs veh, DNAJB6 / RFU, CACNA2D3 / Fold change vs veh, CACNA2D3 / RFU, DTX4 / Fold change vs veh, DTX4 / RFU, TFCP2 / Fold change vs veh, TFCP2 / RFU, GMCL1 /// GMCL1P1 / Fold change vs veh, GMCL1 /// GMCL1P1 / RFU, AEBP2 / Fold change vs veh, AEBP2 / RFU, SNHG1 /// SNORD22 /// SNORD25 /// SNORD26 /// SNORD27 /// SNORD28 /// SNORD29 /// SNORD31 / Fold change vs veh, SNHG1 /// SNORD22 /// SNORD25 /// SNORD26 /// SNORD27 /// SNORD28 /// SNORD29 /// SNORD31 / Fold change (Aza/veh), C12orf56 (ProbeSet 11735607_a_at) / Fold change (ACY-1035/veh), C12orf56 (ProbeSet 11735607_a_at) / Fold change (Aza/veh), FGFR1OP (ProbeSet 11751329_s_at) / Fold change (ACY-1035/veh), FGFR1OP (ProbeSet 11751329_s_at) / Fold change (Aza/veh), VPS36 (ProbeSet 11739960_a_at) / Fold change (ACY-1035/veh), VPS36 (ProbeSet 11739960_a_at) / RFU SYPL1 (11715823_x_at) / Fold change /veh SYPL1 (11715823_x_at) / RFU IGFBP7 (11715501_s_at) / Fold change /veh IGFBP7 (11715501_s_at) / RFU REEP3 (11722064_at) / Fold change /veh REEP3 (11722064_at) / RFU IGLL1 (11728026_x_at) / Fold change /veh IGLL1 (11728026_x_at): dose or concentration left out as unconfirmed. The conditions noted are these: ProbeSet 11749551_a_at; LIST B.

Turning to `Nc1ccc(-c2cccs2)cc1NC(=O)c1ccc2c(c1)cc(C1CC1)n2CCN1CCOCC1` [ACY-1035], the “RFU, RNGTT” value was 53.54 RFU.

For the origin of these results see PMC5218480 (PLoS ONE, 2017).
